Paper PMC10636171 (Cell Death & Disease, 2023)

What was measured:
ACK = target: T1, ACK (Homo sapiens, UniProt Q07912); assay: HTRF/ADP-Glo kinase selectivity panel; assay type: biochemical; details: 500 nM, read-out: 1D228(%inhibition)@500nM
T1 construct: purchased Invitrogen (c-Met, TRKA, TRKB, TRKC)
Protocol: (§1) The compound was serial diluted from 10 mM stock in DMSO, dilute the test compound to 0.1 mM (200 times the specified test concentration). 2 × ATP & Substrate solution and 2 × kinase & Metal solution were prepared using assay buffer; Transfer 25 nL compound to 384 assay plate by Echo 655; After centrifugation, add 2.5 μL 2 × kinase/metal ion solution 384 assay plate, and incubate at 25 °C for 10 min. 2 × XL665 & Antibody solution were prepared with detection buffer; 5 μL of Kinase Detection Reagent was added to the well, and incubated for 60 min at 25 °C; The fluorescence signals of 620 nm (Cryptate) and 665 nm (XL665) were read by microtiter plate reader; […]

BRK = target: T2, BRK (Homo sapiens, UniProt Q13882); assay: HTRF/ADP-Glo kinase selectivity panel; assay type: biochemical; details: 500 nM, read-out: 1D228(%inhibition)@500nM
T2 construct: purchased Invitrogen (c-Met, TRKA, TRKB, TRKC)
Protocol: as §1

DDR2 = target: T3, DDR2 (Homo sapiens, UniProt Q16832); assay: HTRF/ADP-Glo kinase selectivity panel; assay type: biochemical; details: 500 nM, read-out: 1D228(%inhibition)@500nM
T3 construct: purchased Invitrogen (c-Met, TRKA, TRKB, TRKC)
Protocol: as §1

EGFR = target: T4, EGFR (Homo sapiens, UniProt P00533); assay: HTRF/ADP-Glo kinase selectivity panel; assay type: biochemical; details: 500 nM, read-out: 1D228(%inhibition)@500nM
T4 construct: purchased Invitrogen (c-Met, TRKA, TRKB, TRKC)
Protocol: as §1

EPHA1 = target: T5, EPHA1 (Homo sapiens, UniProt P21709); assay: HTRF/ADP-Glo kinase selectivity panel; assay type: biochemical; details: 500 nM, read-out: 1D228(%inhibition)@500nM
T5 construct: purchased Invitrogen (c-Met, TRKA, TRKB, TRKC)
Protocol: as §1

EPHA2 = target: T6, EPHA2 (Homo sapiens, UniProt P29317); assay: HTRF/ADP-Glo kinase selectivity panel; assay type: biochemical; details: 500 nM, read-out: 1D228(%inhibition)@500nM
T6 construct: purchased Invitrogen (c-Met, TRKA, TRKB, TRKC)
Protocol: as §1

EPHA4 = target: T7, EPHA4 (Homo sapiens, UniProt P54764); assay: HTRF/ADP-Glo kinase selectivity panel; assay type: biochemical; details: 500 nM, read-out: 1D228(%inhibition)@500nM
T7 construct: purchased Invitrogen (c-Met, TRKA, TRKB, TRKC)
Protocol: as §1

EPHA8 = target: T8, EPHA8 (Homo sapiens, UniProt P29322); assay: HTRF/ADP-Glo kinase selectivity panel; assay type: biochemical; details: 500 nM, read-out: 1D228(%inhibition)@500nM
T8 construct: purchased Invitrogen (c-Met, TRKA, TRKB, TRKC)
Protocol: as §1

EPHB1 = target: T9, EPHB1 (Homo sapiens, UniProt P54762); assay: HTRF/ADP-Glo kinase selectivity panel; assay type: biochemical; details: 500 nM, read-out: 1D228(%inhibition)@500nM
T9 construct: purchased Invitrogen (c-Met, TRKA, TRKB, TRKC)
Protocol: as §1

FAK = target: T10, FAK (Homo sapiens, UniProt Q05397); assay: HTRF/ADP-Glo kinase selectivity panel; assay type: biochemical; details: 500 nM, read-out: 1D228(%inhibition)@500nM
T10 construct: purchased Invitrogen (c-Met, TRKA, TRKB, TRKC)
Protocol: as §1

FLT3 = target: T11, FLT3 (Homo sapiens, UniProt P36888); assay: HTRF/ADP-Glo kinase selectivity panel; assay type: biochemical; details: 500 nM, read-out: 1D228(%inhibition)@500nM
T11 construct: purchased Invitrogen (c-Met, TRKA, TRKB, TRKC)
Protocol: as §1

FLT4 = target: T12, FLT4 (Homo sapiens, UniProt P35916); assay: HTRF/ADP-Glo kinase selectivity panel; assay type: biochemical; details: 500 nM, read-out: 1D228(%inhibition)@500nM
T12 construct: purchased Invitrogen (c-Met, TRKA, TRKB, TRKC)
Protocol: as §1

HER2 = target: T13, HER2 (Homo sapiens, UniProt P04626); assay: HTRF/ADP-Glo kinase selectivity panel; assay type: biochemical; details: 500 nM, read-out: 1D228(%inhibition)@500nM
T13 construct: purchased Invitrogen (c-Met, TRKA, TRKB, TRKC)
Protocol: as §1

LYNa = target: T14, LYNa (Homo sapiens, UniProt P07948); assay: HTRF/ADP-Glo kinase selectivity panel; assay type: biochemical; details: 500 nM, read-out: 1D228(%inhibition)@500nM
T14 construct: purchased Invitrogen (c-Met, TRKA, TRKB, TRKC)
Protocol: as §1

LYNb = target: T15, LYNb (Homo sapiens, UniProt P07948); assay: HTRF/ADP-Glo kinase selectivity panel; assay type: biochemical; details: 500 nM, read-out: 1D228(%inhibition)@500nM
T15 construct: purchased Invitrogen (c-Met, TRKA, TRKB, TRKC)
Protocol: as §1

MER = target: T16, MER (Homo sapiens, UniProt Q12866); assay: HTRF/ADP-Glo kinase selectivity panel; assay type: biochemical; details: 500 nM, read-out: 1D228(%inhibition)@500nM
T16 construct: purchased Invitrogen (c-Met, TRKA, TRKB, TRKC)
Protocol: as §1

PDGFRβ = target: T17, PDGFRβ (Homo sapiens, UniProt P09619); assay: HTRF/ADP-Glo kinase selectivity panel; assay type: biochemical; details: 500 nM, read-out: 1D228(%inhibition)@500nM
T17 construct: purchased Invitrogen (c-Met, TRKA, TRKB, TRKC)
Protocol: as §1

ROS1 = target: T18, ROS1 (Homo sapiens, UniProt P08922); assay: HTRF/ADP-Glo kinase selectivity panel; assay type: biochemical; details: 500 nM, read-out: 1D228(%inhibition)@500nM
T18 construct: purchased Invitrogen (c-Met, TRKA, TRKB, TRKC)
Protocol: as §1

TXK = target: T19, TXK (Homo sapiens, UniProt P42681); assay: HTRF/ADP-Glo kinase selectivity panel; assay type: biochemical; details: 500 nM, read-out: 1D228(%inhibition)@500nM
T19 construct: purchased Invitrogen (c-Met, TRKA, TRKB, TRKC)
Protocol: as §1

TYK2 = target: T20, TYK2 (Homo sapiens, UniProt P29597); assay: HTRF/ADP-Glo kinase selectivity panel; assay type: biochemical; details: 500 nM, read-out: 1D228(%inhibition)@500nM
T20 construct: purchased Invitrogen (c-Met, TRKA, TRKB, TRKC)
Protocol: as §1

TYRO3 = target: T21, TYRO3 (Homo sapiens, UniProt Q06418); assay: HTRF/ADP-Glo kinase selectivity panel; assay type: biochemical; details: 500 nM, read-out: 1D228(%inhibition)@500nM
T21 construct: purchased Invitrogen (c-Met, TRKA, TRKB, TRKC)
Protocol: as §1

TRKA = target: T22, TRKA (Homo sapiens, UniProt P04629); assay: HTRF kinase assay; assay type: biochemical
T22 construct: purchased Invitrogen (c-Met, TRKA, TRKB, TRKC)
Protocol: (§2) HTRF kinase assay to test the activity of compound 1D228 on c-Met and NTRK kinases: c-Met, TRKA, TRKB and TRKC as well as the Zˊ-Lyte kinase Kit were purchased from Invitrogen. The experiments were performed according to the instructions of the manufacturer. Concentrations consisting of 2 or 10 levels from 0.001 to 1 mM were used for 1D228. Plate was measured on multifunction microplate reader (Molecular Devices, Flex Station 3). Curve fitting and data presentations were performed using Graph Pad Prism version 5.0. Every experiment was repeated at least 3 times.

TRKB = target: T23, TRKB (Homo sapiens, UniProt Q16620); assay: HTRF kinase assay; assay type: biochemical
T23 construct: purchased Invitrogen
Protocol: as §2

TRKC = target: T24, TRKC (Homo sapiens, UniProt Q16288); assay: HTRF kinase assay; assay type: biochemical
T24 construct: purchased Invitrogen (c-Met, TRKA, TRKB, TRKC)
Protocol: as §2

c-Met kinase = target: T25, c-Met kinase (Homo sapiens, UniProt P08581); assay: HTRF kinase assay; assay type: biochemical
T25 construct: purchased Invitrogen
Protocol: as §2

MNK45 cell line = assay: Apoptosis assay, annexin V and PI staining, flow cytometry; assay type: cell-based, human; details: control group 5%
Protocol: MHCC97H or MKN45 cells were seeded in 6-well plates (3 × 10^4 cells/well) and incubated in the presence or absence of compound 1D228, for the cell apoptosis assay, cells were harvested and incubated with 5 μL of Annexin-V/FITC (Keygen Biotech, China) in binding buffer (10 mM HEPES, 140 mM NaCl, and 2.5 mM CaCl2 at pH 7.4) at room temperature for 15 min. PI solution was then added to the medium for another 10 min-incubation. Almost 10,000 events were collected for each sample and analysed by flow cytometry (Beckman Coulter, Epics XL). For the cell cycle assay, cells were fixed in ice-cold 70% ethanol overnight. After the ethanol was removed the next day, the cells were re-suspended in ice-cold PBS, treated with RNAse A (Keygen Biotech, China) at 37 °C for 30 min, and then incubated with the DNA staining solution propidium iodide (PI, Keygen Biotech, China) at 4 °C for 30 min. Approximately 10,000 events were detected by flow cytometry (Beckman Coulter, Epics XL) at 488 nm. The data regarding the number of cells in different phases of the cell cycle were analysed using EXPO32 ADC analysis software.

T2 sequence (Q13882 whole entry): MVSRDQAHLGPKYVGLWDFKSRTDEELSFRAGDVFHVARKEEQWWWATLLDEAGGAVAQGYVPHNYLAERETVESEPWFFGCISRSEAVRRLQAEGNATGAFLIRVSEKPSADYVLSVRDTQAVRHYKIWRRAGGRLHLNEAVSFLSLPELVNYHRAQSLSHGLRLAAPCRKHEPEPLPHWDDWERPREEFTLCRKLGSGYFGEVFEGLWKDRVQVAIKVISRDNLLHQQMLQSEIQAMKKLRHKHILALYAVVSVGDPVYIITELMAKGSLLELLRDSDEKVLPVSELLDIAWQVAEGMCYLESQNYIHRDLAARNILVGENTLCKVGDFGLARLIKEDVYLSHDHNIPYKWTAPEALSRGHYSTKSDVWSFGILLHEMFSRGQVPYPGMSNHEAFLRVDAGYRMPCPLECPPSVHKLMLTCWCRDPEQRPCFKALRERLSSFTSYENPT
T16 sequence (Q12866 21-999): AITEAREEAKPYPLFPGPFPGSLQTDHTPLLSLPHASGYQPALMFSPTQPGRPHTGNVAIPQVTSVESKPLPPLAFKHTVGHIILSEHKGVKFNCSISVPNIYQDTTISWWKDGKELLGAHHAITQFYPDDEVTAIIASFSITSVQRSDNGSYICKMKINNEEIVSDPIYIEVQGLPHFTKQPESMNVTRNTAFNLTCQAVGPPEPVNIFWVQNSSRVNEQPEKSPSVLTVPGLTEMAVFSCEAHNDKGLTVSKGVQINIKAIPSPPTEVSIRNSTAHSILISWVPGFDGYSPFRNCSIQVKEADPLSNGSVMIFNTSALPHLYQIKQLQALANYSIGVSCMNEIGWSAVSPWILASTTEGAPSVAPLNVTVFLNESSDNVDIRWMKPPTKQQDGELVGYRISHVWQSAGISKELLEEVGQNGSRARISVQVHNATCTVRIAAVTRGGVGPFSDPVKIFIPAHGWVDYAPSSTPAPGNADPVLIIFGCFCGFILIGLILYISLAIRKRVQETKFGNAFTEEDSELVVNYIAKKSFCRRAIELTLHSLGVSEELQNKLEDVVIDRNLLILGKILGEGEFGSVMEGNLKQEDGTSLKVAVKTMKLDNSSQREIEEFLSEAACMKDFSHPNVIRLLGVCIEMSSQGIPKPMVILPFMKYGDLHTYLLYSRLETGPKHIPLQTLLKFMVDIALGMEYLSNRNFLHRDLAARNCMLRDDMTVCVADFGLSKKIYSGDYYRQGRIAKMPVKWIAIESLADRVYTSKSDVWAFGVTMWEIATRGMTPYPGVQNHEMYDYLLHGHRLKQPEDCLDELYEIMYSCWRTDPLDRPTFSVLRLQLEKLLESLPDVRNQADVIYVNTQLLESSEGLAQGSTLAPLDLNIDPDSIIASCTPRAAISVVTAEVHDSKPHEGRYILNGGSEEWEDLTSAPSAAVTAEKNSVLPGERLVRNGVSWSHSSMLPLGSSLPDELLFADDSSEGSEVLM
T24 sequence (Q16288 32-839): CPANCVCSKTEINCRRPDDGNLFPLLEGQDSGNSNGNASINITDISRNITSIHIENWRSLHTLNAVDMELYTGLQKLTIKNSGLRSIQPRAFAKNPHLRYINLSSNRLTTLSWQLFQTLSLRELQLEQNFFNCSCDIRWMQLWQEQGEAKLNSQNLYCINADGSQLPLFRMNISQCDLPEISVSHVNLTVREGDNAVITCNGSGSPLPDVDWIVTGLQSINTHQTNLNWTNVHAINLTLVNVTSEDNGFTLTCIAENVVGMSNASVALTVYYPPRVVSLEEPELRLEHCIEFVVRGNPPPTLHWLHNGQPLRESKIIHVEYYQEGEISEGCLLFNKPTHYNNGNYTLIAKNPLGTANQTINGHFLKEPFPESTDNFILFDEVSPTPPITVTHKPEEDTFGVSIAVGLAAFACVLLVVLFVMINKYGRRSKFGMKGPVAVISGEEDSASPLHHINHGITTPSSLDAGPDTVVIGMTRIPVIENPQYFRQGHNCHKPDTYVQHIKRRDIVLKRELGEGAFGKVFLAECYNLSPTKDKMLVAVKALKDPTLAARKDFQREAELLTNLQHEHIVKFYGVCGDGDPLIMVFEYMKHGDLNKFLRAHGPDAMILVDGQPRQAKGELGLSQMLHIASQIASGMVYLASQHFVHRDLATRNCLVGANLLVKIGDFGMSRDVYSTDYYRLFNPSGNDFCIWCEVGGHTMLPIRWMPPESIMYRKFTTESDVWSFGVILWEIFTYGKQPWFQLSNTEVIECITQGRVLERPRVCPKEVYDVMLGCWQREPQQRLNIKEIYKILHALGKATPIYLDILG
T10 sequence (Q05397 whole entry): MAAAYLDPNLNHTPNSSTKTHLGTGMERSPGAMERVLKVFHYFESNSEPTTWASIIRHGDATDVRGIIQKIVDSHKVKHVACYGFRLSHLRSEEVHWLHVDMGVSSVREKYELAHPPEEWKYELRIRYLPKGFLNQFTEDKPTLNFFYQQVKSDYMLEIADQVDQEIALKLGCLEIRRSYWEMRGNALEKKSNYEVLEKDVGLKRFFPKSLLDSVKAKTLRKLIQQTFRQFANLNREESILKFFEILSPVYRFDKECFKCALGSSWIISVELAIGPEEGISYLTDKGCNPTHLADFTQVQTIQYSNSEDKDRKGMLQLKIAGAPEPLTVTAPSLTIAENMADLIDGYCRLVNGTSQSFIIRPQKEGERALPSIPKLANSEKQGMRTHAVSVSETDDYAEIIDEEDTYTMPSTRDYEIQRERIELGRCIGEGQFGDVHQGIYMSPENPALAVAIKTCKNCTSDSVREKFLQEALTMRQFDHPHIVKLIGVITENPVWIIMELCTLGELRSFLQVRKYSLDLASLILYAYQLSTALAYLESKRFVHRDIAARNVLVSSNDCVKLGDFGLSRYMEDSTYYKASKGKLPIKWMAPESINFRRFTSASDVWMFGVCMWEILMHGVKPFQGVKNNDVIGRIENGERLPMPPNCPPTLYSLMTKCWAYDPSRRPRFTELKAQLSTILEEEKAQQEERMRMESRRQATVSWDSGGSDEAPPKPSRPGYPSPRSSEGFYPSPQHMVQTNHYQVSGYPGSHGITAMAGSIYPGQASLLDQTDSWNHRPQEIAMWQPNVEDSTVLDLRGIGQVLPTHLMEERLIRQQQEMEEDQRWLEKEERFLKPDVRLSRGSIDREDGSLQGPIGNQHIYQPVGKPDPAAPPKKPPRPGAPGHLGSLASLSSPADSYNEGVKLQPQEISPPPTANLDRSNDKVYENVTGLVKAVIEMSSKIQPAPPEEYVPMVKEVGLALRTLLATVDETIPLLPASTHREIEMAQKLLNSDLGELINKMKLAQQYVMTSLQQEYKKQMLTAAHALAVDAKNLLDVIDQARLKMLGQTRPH
T22 sequence (P04629 33-796): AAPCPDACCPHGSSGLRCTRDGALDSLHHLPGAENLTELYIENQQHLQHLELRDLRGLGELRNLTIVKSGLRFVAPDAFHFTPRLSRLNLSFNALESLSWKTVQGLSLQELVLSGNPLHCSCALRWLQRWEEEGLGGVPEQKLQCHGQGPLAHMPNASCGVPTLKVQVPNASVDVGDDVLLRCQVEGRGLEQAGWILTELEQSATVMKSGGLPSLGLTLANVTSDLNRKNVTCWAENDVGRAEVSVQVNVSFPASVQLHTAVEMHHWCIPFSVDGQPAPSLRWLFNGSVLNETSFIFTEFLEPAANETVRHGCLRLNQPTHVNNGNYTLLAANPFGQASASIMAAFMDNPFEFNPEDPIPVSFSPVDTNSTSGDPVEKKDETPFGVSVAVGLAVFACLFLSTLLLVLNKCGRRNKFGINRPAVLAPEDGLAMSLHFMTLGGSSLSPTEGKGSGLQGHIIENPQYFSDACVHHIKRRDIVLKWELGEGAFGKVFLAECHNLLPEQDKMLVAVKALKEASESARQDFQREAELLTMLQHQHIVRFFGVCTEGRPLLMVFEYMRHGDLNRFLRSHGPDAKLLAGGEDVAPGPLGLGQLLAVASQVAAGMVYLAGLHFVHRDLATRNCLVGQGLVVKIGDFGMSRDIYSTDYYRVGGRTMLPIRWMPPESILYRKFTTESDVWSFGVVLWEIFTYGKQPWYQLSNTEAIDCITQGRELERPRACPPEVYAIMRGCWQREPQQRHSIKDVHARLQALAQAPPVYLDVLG
T7 sequence (P54764 20-986): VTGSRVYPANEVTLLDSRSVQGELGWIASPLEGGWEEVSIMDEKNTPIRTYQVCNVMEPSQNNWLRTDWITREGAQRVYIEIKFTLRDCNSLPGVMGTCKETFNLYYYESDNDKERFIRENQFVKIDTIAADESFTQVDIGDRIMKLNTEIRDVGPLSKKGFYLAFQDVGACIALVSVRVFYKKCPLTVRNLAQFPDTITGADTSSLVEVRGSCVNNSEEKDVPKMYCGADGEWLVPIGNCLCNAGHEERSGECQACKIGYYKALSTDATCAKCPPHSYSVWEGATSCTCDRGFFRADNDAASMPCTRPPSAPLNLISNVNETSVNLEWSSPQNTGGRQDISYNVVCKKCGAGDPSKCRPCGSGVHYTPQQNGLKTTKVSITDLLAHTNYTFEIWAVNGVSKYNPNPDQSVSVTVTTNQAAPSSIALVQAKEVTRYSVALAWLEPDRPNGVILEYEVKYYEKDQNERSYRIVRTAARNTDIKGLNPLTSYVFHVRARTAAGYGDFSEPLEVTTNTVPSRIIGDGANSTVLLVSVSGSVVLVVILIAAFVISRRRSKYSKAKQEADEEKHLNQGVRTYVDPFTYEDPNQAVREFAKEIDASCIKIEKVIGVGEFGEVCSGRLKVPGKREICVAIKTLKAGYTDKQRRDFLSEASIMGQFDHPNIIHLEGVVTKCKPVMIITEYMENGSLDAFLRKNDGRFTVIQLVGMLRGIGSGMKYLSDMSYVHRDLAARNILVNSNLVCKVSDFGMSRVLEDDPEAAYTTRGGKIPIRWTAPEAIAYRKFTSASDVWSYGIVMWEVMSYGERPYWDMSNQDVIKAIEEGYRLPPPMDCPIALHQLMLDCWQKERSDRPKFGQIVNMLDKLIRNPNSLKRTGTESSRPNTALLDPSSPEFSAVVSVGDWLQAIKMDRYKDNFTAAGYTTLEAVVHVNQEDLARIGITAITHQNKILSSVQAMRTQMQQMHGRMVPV

With [2H][C@@](C)(c1cccc(-c2ncc(OCC3CCN(C)CC3)cn2)c1)n1nc(-c2cccc(C#N)c2)ccc1=O [1D228] the inhibition at 0.5 µM (ACK) was 1.96%, the inhibition at 0.5 µM (BRK) was 3.19% and the inhibition at 0.5 µM (DDR2) was -3.98%. It also gave an inhibition at 0.5 µM (EGFR) of 1.17%, an inhibition at 0.5 µM (EPHA1) of -1.53% and an inhibition at 0.5 µM (EPHA2) of -0.798%. For the same compound, the inhibition at 0.5 µM (EPHA4) was -14.7%, the inhibition at 0.5 µM (EPHA8) was 8.52% and the inhibition at 0.5 µM (EPHB1) was -6.48%. It also gave an inhibition at 0.5 µM (FAK) of -9.58%, an inhibition at 0.5 µM (FLT3) of 17.9% and an inhibition at 0.5 µM (FLT4) of -3.03%. It also gave an inhibition at 0.5 µM (HER2) of 8.78%, an inhibition at 0.5 µM (LYNa) of 27.3% and an inhibition at 0.5 µM (LYNb) of 5.26%. For the same compound, the inhibition at 0.5 µM (MER) was 84.1%, the inhibition at 0.5 µM (PDGFRβ) was -3.95% and the inhibition at 0.5 µM (ROS1) was 7.05%. For the same compound, the inhibition at 0.5 µM (TXK) was 1.29%, the inhibition at 0.5 µM (TYK2) was 4.51% and the inhibition at 0.5 µM (TYRO3) was 4.2%. The IC50 (TRKA) was 111 nM, the IC50 (TRKB) was 23.7 nM and the IC50 (TRKC) was 25.5 nM. The IC50 (c-Met kinase) was 0.98 nM, the Apoptosis (MNK45 cell line; annexin V / PI staining) was 53–75% and the “Apoptosis, times higher than in the control group” value (MNK45 cell line) was 10–15 times.
